Our source for the GI50 and inhibition values is ChEMBL document CHEMBL4130480, “Serinolamides and Lyngbyabellins from an Okeania sp. Cyanobacterium Collected from the Red Sea” (J Nat Prod, 2017).

SMILES strings stand for the structures. Activity calls are given as the source filed them. No cut-off for these calls is given here.

The subject of one assay is MCF7. As to the kind of experiment: Growth inhibition of human MCF7 cells after 72 hrs by MTT assay. In kind it is functional. To be noted: MCF7, 72 h. Background: Tetrazolium assays rely on reduction of a dye to a coloured formazan, in cell work by metabolically active cells.
The next assay has as its system NCI-H460. In words: Growth inhibition of human H460 cells after 72 hrs by MTT assay. The format is functional. To be noted: NCI-H460, 72 h.
Another assay deals with N2a. As to the kind of experiment: Growth inhibition of mouse Neuro2a cells after 72 hrs by MTT assay. In kind it is functional.
A further assay deals with Amphibalanus amphitrite. In words: Antifouling activity against cypris stage of Amphibalanus amphitrite larvae assessed as inhibition of larval settlement at < 1 ug/ml after 48 to 120 hrs by microscopic analysis. In kind it is functional, organism-based.

A word on the GI50: it is the concentration giving 50% growth inhibition. A lower GI50 goes with greater sensitivity of the cells.

Regarding `COC(=O)c1csc([C@@H](OC(=O)[C@@H](C)[C@H](CCCC(C)(Cl)Cl)OC(=O)c2csc([C@H](O)CO)n2)C(C)(C)O)n1`, the GI50 with MCF7 is > 160 µM.
Take `C[C@@H]1C(=O)O[C@@H](C(C)(C)O)c2nc(cs2)C(=O)OC[C@@H](O)c2nc(cs2)C(=O)O[C@H]1CCCC(C)(Cl)Cl`: the 50% growth inhibitory concentration (GI50) with NCI-H460 came to 2.2 µM; in the assay on MCF7 it was 120 µM; in the assay on N2a, 4.8 µM.
In the case of `CCCC(=O)N[C@@H](CC(C)C)[C@H](O)CC(=O)OC[C@@H](O)c1nc(C(=O)O[C@@H](CCCC(C)(Cl)Cl)[C@H](C)C(=O)O[C@H](c2nc(C(=O)OC)cs2)C(C)(C)O)cs1`, the GI50 with MCF7 was determined as 9 µM.
As to `CCCCCCCCCCCCC/C=C(\C)C(=O)N[C@H](COC)COC(C)=O`, the inhibition entry in the assay on Amphibalanus amphitrite was “Active”.
Still for that read-out and setting: the value for `CCCCCCCCCCCCC/C=C(\C)C(=O)N[C@@H](CO)COC` was “Active”.
